From patent US9375000B2, “Pesticidal arylpyrrolidines” (Bayer Intellectual Property GmbH, priority 2011, dated 2016)

Tests used:
Assay type in all cases: in vivo
[1] = tested on: Larvae of Spodoptera litura; experiment: Larvae of Spodoptera litura, method using artificial feeds; settings: artificial feed, after 7 days
Protocol: (§1) Unless not mentioned otherwise, the test solutions were prepared as follows:
(§2) Solvent: 3 parts by weight Dimethylformamide
(§3) Emulsifier: 1 part by weight Polyoxyethylene alkyl phenyl ether
(§4) In order to make an appropriate formulation of an active compound, 1 part by weight of the active compound is mixed with the above mentioned amount of solvent and emulsifier and the mixture is diluted with water to a prescribed concentration. Ammonium salt or ammonium salt and penetration enhancer in a dosage of 1000 ppm are added to the desired concentration if necessary.
[A Method Using Artificial Feeds (Trade Name: Insecta LFM, Manufactured by Nosan Corporation)]
Powdery artificial feeds (2.3 g) were added to a plastic cup (diameter: 7.5 cm, height: 4 cm) to achieve a certain thickness. Water-diluted liquid (5 ml) of the active compound prepared above having predetermined concentration was evenly poured thereto and allowed to stand until the feeds were solidified. Five of the 3rd-instar larvae of Spodoptera litura were released in respective cups, and covered. The cups were put in a temperature controlled room at 25° C. and humidity of 50 to 60%, and the number of dead larvae after 7 days was determined to calculate the pesticidal ratio. 100% pesticidal ratio means death of all the larvae, while 0% pesticidal ratio means no dead larvae.

[2] = tested on: Two-Spotted Spider Mite (Tetranychus urticae); experiment: Two-spotted spider mite (Tetranychus urticae) spray test on kidney bean; settings: after 7 days
Protocol: as §1, §2, §3, §4
50 to 100 adult mites of Tetranychus urticae were inoculated to leaves of kidney bean at two-leaf stage planted in a pot of 6 cm in diameter. After one day, test solution at the appropriate concentration was sprayed thereon in a sufficient amount using a spray gun. After the spraying, the plant pot was placed inside a greenhouse, and after 7 days, the acaricidal activity was calculated. An acaricidal activity of 100% means that all mites were killed, whereas an acaricidal activity of 0% means that no mite was killed.

[3] = tested on: Cucurbit Leaf Beetle (Aulacophora femoralis); experiment: Cucurbit leaf beetle (Aulacophora femoralis) cucumber leaf dip test; settings: after 7 days
Protocol: as §1, §2, §3, §4
Leaves of cucumber were immersed in the test solution at the appropriate concentration, and the leaves were dried in air. The leaves were then put in a plastic cup containing sterilized black soil and five Aulacophora femoralis at second instar larvae were released in the cup. The cups were placed in a temperature-controlled chamber at 25° C. After 7 days, the number of dead larvae was counted, and thus the insecticidal activity was calculated. An insecticidal activity of 100% means that all larvae were killed, whereas an insecticidal activity of 0% means that no larva was killed.

[4] = active compound concentration 20 ppm
[5] = active compound concentration 4 ppm

Structure (SMILES) | insecticidal activity (pesticidal ratio) [1, 4] | acaricidal activity [2, 4] | insecticidal activity [3, 4] | insecticidal activity (pesticidal ratio) [1, 5] | insecticidal activity [3, 5] | acaricidal activity [2, 5]
CC(NC(=O)C1CC1)c1ccc(N2CCC(c3cc(Cl)c(Cl)c(Cl)c3)(C(F)(F)F)C2O)cc1 (mixture of isomers) [A2-16] | 100% | 100% | 100% | – | – | –
CSCC(=O)NCc1ccc(N2CCC(c3cc(C(F)(F)F)cc(C(F)(F)F)c3)(C(F)(F)F)C2O)nc1Br (mixture of isomers) [A3-163] | 100% | 100% | 100% | 100% | 100% | –
C[S+]([O-])CC(=O)NCc1ccc(N2CCC(c3cc(C(F)(F)F)cc(C(F)(F)F)c3)(C(F)(F)F)C2O)nc1Br (mixture of isomers) [A3-164] | 100% | 98% | 100% | 100% | 100% | –
CCC(=O)NCc1ccc(N2CCC(c3cc(Cl)c(F)c(Cl)c3)(C(F)(F)F)C2O)nc1C(F)(F)F (mixture of isomers) [A3-200] | 100% | 100% | 100% | – | – | –
O=C(NCc1ccc(N2CCC(c3cc(Cl)c(F)c(Cl)c3)(C(F)(F)F)C2O)nc1C(F)(F)F)C1CC1 (mixture of isomers) [A3-203] | 100% | 100% | 100% | – | – | –
CCC(=O)NCc1ccc(N2CCC(c3cc(Cl)c(F)c(Cl)c3F)(C(F)(F)F)C2O)nc1C(F)(F)F (mixture of isomers) [A3-211] | 100% | 100% | 100% | 100% | 100% | 100%
CCC(=O)NCc1ccc(N2CCC(c3cc(Cl)cc(C(F)(F)F)c3)(C(F)(F)F)C2O)nc1C(F)(F)F (mixture of isomers) [A3-266] | 100% | 100% | 100% | – | – | –
O=C(NCc1ccc(N2CCC(c3cc(Cl)cc(C(F)(F)F)c3)(C(F)(F)F)C2O)nc1C(F)(F)F)C1CC1 (mixture of isomers) [A3-269] | 100% | 100% | 100% | – | – | –
CCC(=O)NCc1ccc(N2CCC(c3cccc(C(F)(F)F)c3)(C(F)(F)F)C2O)cc1C(F)(F)F (racemic) [A1-294] | 100% | 100% | 100% | – | – | –
O=C(NCc1ccc(N2CCC(c3cccc(C(F)(F)F)c3)(C(F)(F)F)C2O)cc1C(F)(F)F)C1CC1 (racemic) [A1-297] | 100% | 100% | 100% | – | – | –
CCC(=O)NCc1ccc(N2CCC(c3ccc(F)c(C(F)(F)F)c3)(C(F)(F)F)C2O)cc1C(F)(F)F (racemic) [A1-305] | 100% | 100% | 100% | – | – | –
O=C(NCc1ccc(N2CCC(c3ccc(F)c(C(F)(F)F)c3)(C(F)(F)F)C2O)cc1C(F)(F)F)C1CC1 (racemic) [A1-308] | 100% | 100% | 100% | – | – | –
CCC(=O)NCc1ccc(N2CCC(c3cccc(C(F)(F)F)c3)(C(F)(F)F)C2O)nc1C(F)(F)F (racemic) [A3-222] | 100% | 100% | 100% | – | – | –
O=C(NCc1ccc(N2CCC(c3cccc(C(F)(F)F)c3)(C(F)(F)F)C2O)nc1C(F)(F)F)C1CC1 (racemic) [A3-225] | 100% | 100% | 100% | – | – | –
O=C(CC(F)(F)F)NCc1ccc(N2CCC(c3cccc(C(F)(F)F)c3)(C(F)(F)F)C2O)nc1C(F)(F)F (racemic) [A3-227] | 100% | 100% | 100% | – | – | –
O=C(NCc1ccc(N2CCC(c3cc(Cl)cc(Cl)c3)(C(F)(F)F)C2O)cc1Cl)C1CC1 (stereo not shown) [A1-5] | 100% | 100% | 100% | – | – | –
O=C(CC(F)(F)F)NCc1ccc(N2CCC(c3cc(Cl)cc(Cl)c3)(C(F)(F)F)C2O)cc1Cl (stereo not shown) [A1-7] | 100% | 100% | 100% | – | – | –
CCC(=O)NCc1ccc(N2CCC(c3cc(Cl)c(Cl)c(Cl)c3)(C(F)(F)F)C2O)cc1Cl (stereo not shown) [A1-13] | 100% | 100% | 100% | – | – | –
CC(=O)NCc1ccc(N2CCC(c3cc(C(F)(F)F)cc(C(F)(F)F)c3)(C(F)(F)F)C2O)cc1Cl (stereo not shown) [A1-23] | 100% | 100% | 100% | – | – | –
CCC(=O)NCc1ccc(N2CCC(c3cc(C(F)(F)F)cc(C(F)(F)F)c3)(C(F)(F)F)C2O)cc1Cl (stereo not shown) [A1-24] | 100% | 100% | 100% | – | – | –
COCCC(=O)NCc1ccc(N2CCC(c3cc(C(F)(F)F)cc(C(F)(F)F)c3)(C(F)(F)F)C2O)cc1Cl (stereo not shown) [A1-30] | 100% | 100% | 100% | – | – | –
CSCC(=O)NCc1ccc(N2CCC(c3cc(C(F)(F)F)cc(C(F)(F)F)c3)(C(F)(F)F)C2O)cc1Cl (stereo not shown) [A1-31] | 100% | 100% | 100% | – | – | –
CS(=O)(=O)CC(=O)NCc1ccc(N2CCC(c3cc(C(F)(F)F)cc(C(F)(F)F)c3)(C(F)(F)F)C2O)cc1Cl (stereo not shown) [A1-33] | 100% | 100% | 100% | – | – | –
O=C(NCc1ccc(N2CCC(c3cc(Cl)cc(Cl)c3)(C(F)(F)F)C2O)cc1C(F)(F)F)C1CC1 (stereo not shown) [A1-38] | 100% | 100% | 100% | – | – | –
O=C(CC(F)(F)F)NCc1ccc(N2CCC(c3cc(Cl)cc(Cl)c3)(C(F)(F)F)C2O)cc1C(F)(F)F (stereo not shown) [A1-40] | 100% | 100% | 100% | – | – | –
CSCC(=O)NCc1ccc(N2CCC(c3cc(Cl)cc(Cl)c3)(C(F)(F)F)C2O)cc1C(F)(F)F (stereo not shown) [A1-42] | 100% | 100% | 100% | – | – | –
C[S+]([O-])CC(=O)NCc1ccc(N2CCC(c3cc(Cl)cc(Cl)c3)(C(F)(F)F)C2O)cc1C(F)(F)F (stereo not shown) [A1-43] | 100% | 100% | 100% | – | – | –
CS(=O)(=O)CC(=O)NCc1ccc(N2CCC(c3cc(Cl)cc(Cl)c3)(C(F)(F)F)C2O)cc1C(F)(F)F (stereo not shown) [A1-44] | 100% | 100% | 100% | – | – | –
CCC(=O)NCc1ccc(N2CCC(c3cc(Cl)c(Cl)c(Cl)c3)(C(F)(F)F)C2O)cc1C(F)(F)F (stereo not shown) [A1-46] | 100% | 100% | 100% | – | – | –
